{"source": "patent US20040192554A1", "about": "“Technique for effectively treating an agricultural product with a 1-substituted-cyclopropene” (priority 2003, published 2004)", "type_in_all_cases": "in vivo", "key": {"[1]": {"tested_on": "apple (variety \"Sansa\") fruit", "test": "Quality deterioration of apple (Sansa) fruit after storage, Example 5", "conditions": "1 ppm, after storage 25 degrees C 2 weeks", "protocol": "Using an apple (variety “Sansa”) fruit (6 fruits were used per group) as an agricultural product, the following experiment was performed.\n1) A fruit and 1-methylcyclopropene (concentration 1 ppm in a chamber) were placed into a sealed chamber, and contact-treated for 12 hours under a normal pressure.\n(§1) 2) A fruit was placed into a sealed chamber, and a pressure in the chamber was reduced to 25.0 kPa. Subsequently, 1-methylcyclopropene was placed therein to the concentration in the chamber of 1 ppm, and contact-treated for 1 minute under the reduced pressure (25.0 kPa).\n(§2) The fruit which had been subjected to treatment of the above-mentioned 1) or 2) was stored at 25 degrees C for 2 weeks, and hardness of flesh, pH of a fruit juice which is an index for the content of an acid, and the ethylene concentration in a fruit core were measured. Contact treatment of the above-mentioned 1) or 2) was performed on the following day of harvesting a fruit. In addition, also regarding a fruit undergoing no treatment of 1) or 2) (non-treatment), similar storage was performed, and the above-mentioned index was measured. Further, regarding non-treated fruit, the above-mentioned index before storage was also measured. Different alpha characters in Table 4 indicate that a significant difference was recognized at a risk rate of 5% (multiple range test of Newman-Keuls)."}, "[2]": {"tested_on": "peach (variety \"Akatsuki\") fruit", "test": "Quality deterioration of peach (Akatsuki) fruit after storage, Example 8", "conditions": "1 ppm, after storage 25 degrees C 5 days, treated on day of harvest", "protocol": "(§3) Using a peach (variety “Akatsuki”) fruit (6 fruits were used per group) as an agricultural product, the following experiment was performed.\n1) A fruit and 1-methylcyclopropene (concentration in a chamber 1 ppm) were placed into a sealed chamber, and contact-treated for 12 hours under a normal pressure.\nas §1, with “kPa). Then, the pressure was returned to a normal pressure, and contact treatment was carried out for 12 hours while the concentration of 1-methylcyclopropene in the chamber was maintained at 1 ppm.” for “kPa).”\n(§4) The fruit which had been subjected to treatment of the above-mentioned 1) or 2) was stored at 25 degrees C for 5 days, and hardness of flesh was measured. In addition, contact treatment of the above-mentioned 1) or 2) was performed on a day for harvesting of a fruit. In addition, also regarding a fruit undergoing no treatment of 1) or 2) (non-treatment), similar storage was performed, and the above-mentioned index was measured. Further, regarding a non-treated fruit, the above-mentioned index before storage was also measured. […]"}, "[3]": {"tested_on": "peach (variety \"Akatsuki\") fruit", "test": "Quality deterioration of peach (Akatsuki) fruit after storage, Example 9", "conditions": "1 ppm, after storage 25 degrees C 5 days, treated day after harvest", "protocol": "as §3\nas §1, with “1)” for “2)”, “kPa). Then, the pressure was returned to a normal pressure, and contact treatment was carried out for 12 hours while the concentration of 1-methylcyclopropene in the chamber was maintained at 1 ppm.” for “kPa).”\n2) A fruit was placed into a sealed chamber, and a pressure in the chamber was reduced to 25.0 kPa. Subsequently, 1-methylcyclopropene was placed therein to the concentration in the chamber of 1 ppm, and contact-treated for 12 hours under the reduced pressure (25.0 kPa).\nas §4, with “In addition, contact treatment of the above-mentioned 1) or 2) was performed on a day for harvesting of a fruit.” left out"}, "[4]": {"tested_on": "Japanese pear (variety \"Hosui\") fruit", "test": "Quality deterioration of Japanese pear (Hosui) fruit after storage, Example 4", "conditions": "1 ppm, after storage 25 degrees C 2 weeks", "protocol": "Using a Japanese pear (variety “Hosui”) fruit (6 fruits were used per group) as an agricultural product, the following experiment was performed.\n(§5) 1) A fruit and 1-methylcyclopropene (concentration 1 ppm in a chamber) were placed into a sealed chamber, and contact-treated for 16 hours under a normal pressure.\nas §1\nas §2, with “flesh and” for “flesh,”, “acid” for “acid, and the ethylene concentration in a fruit core”, “a” for “the following”"}, "[5]": {"tested_on": "Japanese pear (variety \"Kosui\") fruit", "test": "Quality deterioration of Japanese pear (Kosui) fruit after storage, Example 3", "conditions": "1 ppm, after storage 25 degrees C 2 weeks", "protocol": "Using a Japanese pear (variety “Kosui”) fruit (6 fruits were used per group) as an agricultural product, the following experiment was performed.\nas §5, §1\nThe fruit which had been subjected to treatment of the above-mentioned 1) or 2) was stored at 25 degrees C for 2 weeks, and hardness of flesh and pH of a fruit juice which is an index for the content of an acid were measured. In addition, an extent of storage disorder was assessed by tasting. Contact treatment of the above-mentioned 1) or 2) was performed on a day of harvesting a fruit. In addition, also regarding a fruit undergoing no treatment of 1) or 2) (non-treatment), similar storage was performed, and the above-mentioned index was measured and assessed. Further, regarding non-treated fruit, the above-mentioned index before storage was also measured and assessed. Different alpha characters in Table 3 indicate that a significant difference was recognized at a risk rate of 5% (multiple range test of Newman-Keuls)."}, "[6]": {"conditions": "Reduced pressure (25.0 kPa) 1 minute"}, "[7]": {"conditions": "Normal pressure 12 hours after reduced pressure (25.0 kPa) 1 minute"}}, "data": [{"smiles": "CC1=CC1", "note": "[1-MCP, 1-methylcyclopropene]", "values": [{"measurement": "Ethylene concentration in fruit core", "setting": "[1]; Normal pressure 12 hours", "value": 1.86, "unit": "a μL/L"}, {"measurement": "Hardness of flesh", "setting": "[1]; Normal pressure 12 hours", "value": 61.05, "unit": "b N"}, {"measurement": "pH of fruit juice", "setting": "[1]; Normal pressure 12 hours", "value": 3.38, "unit": "a"}, {"measurement": "Ethylene concentration in fruit core", "setting": "[1]; [6]", "value": 0.97, "unit": "a μL/L"}, {"measurement": "Hardness of flesh", "setting": "[1]; [6]", "value": 63.21, "unit": "b N"}, {"measurement": "pH of fruit juice", "setting": "[1]; [6]", "value": 3.40, "unit": "a"}, {"measurement": "Hardness of flesh", "setting": "[2]; [7]", "value": 6.18, "unit": "b N"}, {"measurement": "Hardness of flesh", "setting": "[2]; Normal pressure 12 hours", "value": 2.84, "unit": "a N"}, {"measurement": "Hardness of flesh", "setting": "[3]; [7]", "value": 4.39, "unit": "a N"}, {"measurement": "Hardness of flesh", "setting": "[3]; Reduced pressure (25.0 kPa) 12 hours", "value": 7.11, "unit": "b N"}, {"measurement": "Hardness of flesh", "setting": "[4]; Normal pressure 16 hours", "value": 18.72, "unit": "N"}, {"measurement": "pH of fruit juice", "setting": "[4]; Normal pressure 16 hours", "value": 4.37, "unit": "a"}, {"measurement": "Hardness of flesh", "setting": "[4]; [6]", "value": 17.25, "unit": "N"}, {"measurement": "pH of fruit juice", "setting": "[4]; [6]", "value": 4.43, "unit": "a"}, {"measurement": "Hardness of flesh", "setting": "[5]; Normal pressure 16 hours", "value": 22.44, "unit": "N"}, {"measurement": "Tasting", "setting": "[5]; Normal pressure 16 hours", "value": "Better"}, {"measurement": "pH of fruit juice", "setting": "[5]; Normal pressure 16 hours", "value": 5.22, "unit": "a"}, {"measurement": "Hardness of flesh", "setting": "[5]; [6]", "value": 21.36, "unit": "N"}, {"measurement": "Tasting", "setting": "[5]; [6]", "value": "Better"}, {"measurement": "pH of fruit juice", "setting": "[5]; [6]", "value": 5.57, "unit": "b"}]}]}
